In paper PMC9570594, “Development of Novel Pyridine-Thiazole Hybrid Molecules as Potential Anticancer Agents” (Molecules, 2022):
Where two headings read alike, the source gives them in different places.

What was measured:
[1] = tested on: A549 (lung); assay: MTT assay of cell viability; conditions: Homo sapiens, A549, 72 h
[2] = tested on: SK-OV-3 (ovarian); assay: MTT assay of cell viability; conditions: Homo sapiens, SK-OV-3, 72 h
[3] = tested on: murine macrophages of J774.2 line; assay: MTT assay of cell viability; conditions: Mus musculus, J774.2, 72 h
[4] = tested on: human embryonic kidney HEK293 cells; assay: MTT assay of cell viability; conditions: HEK293, 72 h
[5] = tested on: HCT-116 (colon); assay: MTT assay of cell viability
[6] = tested on: MCF-7 (breast); assay: MTT assay of cell viability
[7] = tested on: BALB-3T3 (normal mouse fibroblasts); assay: MTT assay of cell viability; conditions: BALB/3T3, 72 h
[8] = tested on: HL-60 cells of the acute human promyelocytic leukemia; assay: MTT assay of cell viability
[9] = tested on: human epidermal keratinocytes of HaCaT line; assay: MTT assay of cell viability; conditions: 72 h
[10] = tested on: HCT-116 p53 (−/−) colon cancer cells; assay: MTT assay of cell viability; conditions: Homo sapiens, HCT-116, 72 h
Source text: The cell lines used in our work were kindly provided by a Collection at the Institute of Molecular Biology and Genetics, National Academy of Sciences of Ukraine (Kyiv, Ukraine).

[11] = tested on: MCF-7 cells; assay: Clonogenic assay; assay type: cell-based, human; conditions: MCF-7, positive control, concentration not given, 10 days
Procedure: This assay essentially tests every cell in the population for its ability to undergo “unlimited” division. […] At 1 µM concentration, it reduced the ability of the MCF-7 single cell to grow into a colony to 36%. […] With a concentration equivalent to 10 µM of the compound 4, the DMSO increased the cell’s ability to grow in colony.
MCF-7 cells were seeded in triplicate in 6-well plates (CytoONE, STARLAB International GmbH, Germany) at a density of 500 cells per well. After 24 h incubation, the compound 4 was added in 1 and 10 μM concentrations and cells were treated for 10 days. Colonies containing ≥ 50 cells were fixed with 50% (v/v) methanol in the PBS and stained with crystal violet (Sigma-Aldrich, Burlington, MA, USA). Stained colonies were counted and expressed as a fraction of the untreated control.

[12] = tested on: Jurkat (leukemia); assay: MTT assay of cell viability; conditions: Homo sapiens, 72 h
[13] = tested on: KB3-1 (cervix); assay: MTT assay of cell viability
[14] = tested on: KB3-1 cells; assay: Fluorescent microscopy of morphological changes (Hoechst 33342/PI); assay type: cell-based, human; conditions: 48 h
Procedure: In addition, we observed multinucleated giant cells. […] The condensed chromatin, a characteristic feature of apoptosis, and dead cells were observed under the action of all studied compounds.
KB3-1 cells were seeded in the 12-well plates (CytoONE, STARLAB International GmbH, Hamburg, Germany) on glass microscopic slides and incubated overnight. Studied compounds were added to cells in the following concentrations: the compounds 3, 4 and cisplatin—5 µM/mL, doxorubicin—1 µM/mL. Cells were incubated for the next 48 h. Chromatin material of living and apoptotic cells was stained with the DNA-specific fluorescent dye Hoechst 33342 (Sigma-Aldrich, Burlington, MA, USA) and the DNA/RNA-specific fluorescent dye Propidium iodide (PI, Sigma, Burlington, MA, USA). Fluorochromes were added to cultured cells at final concentrations 0.2–0.5 μg/mL for Hoechst 33342 and 0.1 μg/mL—for PI. Images were made with a fluorescent Zeiss microscope (Carl Zeiss, Oberkochen, Germany). Magnification ×400. Microphotographs were additionally analyzed using ImagePro7N software.

[15] = tested on: MCF-7 cells; assay: PARP-1 inhibition in vitro: MTT after Fluzoparib pretreatment; assay type: cell-based, human; conditions: for IC50: Homo sapiens, MCF7
Procedure: Taking into account the above data, PARP1 inhibition in vitro was investigated using pretreatment of the MCF-7 cells with the Fluzoparib, a potent PARP1 inhibitor in the non-toxic concentrations of 5, 10, and 15 µM. It had no significant growth inhibitory effect in such doses, and a reduction of cell viability by only 10–12% was observed compared to control (non-treated) cells. […] The preincubation step was used to bind PARP1 molecules, which were the potential targets of the studied compounds and to test if it would affect the activity of 3 and 4. […] The preincubation of cells with the Fluzoparib decreased their sensitivity to the compound 3 treatment in a less pronounced manner, compared with the effect of the compound 4. […] Changes in structure of the started compound 3 may cause an enhancement of the ability of molecule 4 to inhibit the activity of PARP1.
To determine PARP inactivation, the MCF-7 cells were pretreated for 2 h in the non-toxic concentrations of 5, 10, 15 µM of the Fluzoparib (Med Chem Express, Monmouth Junction, NJ, USA), a potent PARP1 inhibitor used in the chemotherapy. Then, the medium was removed and increasing doses of the compounds 3 and 4 were added and cells were incubated for the next 72 h. The IC50 values of compounds were determined by the MTT assay, as described.

[16] = tested on: panel of cancer cell lines; assay: MTT assay, summary over the tumor cell lines; conditions: 72 h; for IC50: Homo sapiens, read-out: IC50 toward tumor cells (depending on tumor cell line)
[17] = tested on: MCF-7 breast cancer cells; assay: Mitochondrial membrane potential, JC-1 (flow cytometry); assay type: cell-based, human; conditions: MCF-7, 5 µM, 24 h, control 5.1 ± 0.7%
Procedure: A decrease in the mitochondrial membrane potential (MMP, ΔΨm) is one of the earliest changes observed at apoptosis. […] The MCF-7 cells had depolarized mitochondria, reaching 25.3 ± 1.5% and 24.7 ± 0.4% of the cell population treated with the compound 4 and 7, respectively. In the control, there were only 5.1 ± 0.7% cells with a decreased ΔΨm.
Disruption of the MMP was assessed using the lipophilic cationic probe 5,5,6,6-tetrachloro-1,1,3,3-tetraethylbenzimidazolcarbocyanine iodide (JC-1 MitoScreen kit; BD Biosciences San Diego, CA, USA), as described previously. The entire assay was performed according to the manufacturer’s instructions provided with the purchased kit. […] Briefly, unfixed MCF-7 cells were washed and resuspended in the PBS supplemented with the JC-1 dye. Then, cells were incubated for 15 min at room temperature (RT) in the dark, washed, and resuspended in the PBS for the immediate BD FACSCanto II flow cytometry analysis.

[18] = tested on: MCF-7 breast cancer cells; assay: Annexin V-FITC/PI binding assay (flow cytometry); conditions: MCF-7, 5 µM, 24 h; control 4.4 ± 0.6%
Procedure: Annexin V-FITC and Propidium Iodide were used for apoptosis measurement.
Apoptosis was determined, as described [42], using Annexin V-FITC binding by means of the FITC Annexin V Apoptosis Detection Kit II(BD Biosciences, San Diego, CA, USA) according to the manufacturer’s instruction. Cells (10,000 cell measured) were analyzed in a BD FACSCanto II flow cytometer (BD Biosciences, San Diego, CA, USA). Annexin V binds with high affinity to phosphatidylserine, and thus, can be used to identify cells in all stages of the programmed cell death. Propidium iodide (PI) exclusively stains cells with a disrupted cell membrane and can be used to identify late apoptotic and dead cells. Cells cultured in a drug-free medium were used as controls. […] The contents of the test tubes were gently vortexed and incubated for 15 min at room temperature, protected from light. After the required time, the contents of the test tubes were made up to 500 µL with the Binding Buffer and immediately analyzed in a flow cytometer. The ratio of the apoptotic cells (early and late) was measured as: a percentage of cells from the upper right square (color red) to percentage of cells from the lower right square (color blue). Analysis was performed using the BD FACSCanto II flow cytometer, and the results were analyzed with FACSDiva software (both from BD Biosciences Systems, San Jose, CA, USA). […]

[19] = tested on: NCI-H522 (Non-Small Cell Lung Cancer); assay: NCI one-dose SRB assay; conditions: 10 μM, 48 h
Procedure: (§1) Primary anticancer assays (Table 3) on a panel of 60 cancer cell lines at one dose-assay (10^−5 M) were performed according to the NCI protocol, as described elsewhere [31, 32, 33, 34, 35].
(§2) A primary anticancer assay was performed on a panel of approximately sixty human tumor cell lines derived from nine neoplastic diseases, in accordance with the protocol of the Drug Evaluation Branch, National Cancer Institute, Bethesda [31, 32, 33, 34, 35]. Tested compounds were added to the culture at a single concentration (10^−5 M) and the cultures were incubated for 48 h. End point determinations were made with a protein binding dye, Sulphorhodamine B (SRB). […] The percentage growth was evaluated spectrophotometrically versus controls not treated with test agents.

[20] = tested on: panel of 60 cancer cell lines; assay: NCI DTP one-dose primary anticancer assay (10^-5 M, SRB); conditions: 10 μM
Procedure: as §1, §2

[21] = tested on: MDA-MB-435 (Melanoma); assay: NCI one-dose SRB assay; assay type: cell-based, human; conditions: 10 μM, 48 h
[22] = tested on: HL-60(TB) (Leukemia); assay: NCI one-dose SRB assay; assay type: cell-based, human; conditions: 10 μM, 48 h
[23] = tested on: MDA-MB-468 (Brest Cancer); assay: NCI one-dose SRB assay; assay type: cell-based, human; conditions: 10 μM, 48 h
[24] = tested on: SR (Leukemia); assay: NCI one-dose SRB assay; conditions: 10 μM, 48 h
Procedure: as §1, §2

[25] = tested on: CCRF-CEM (Leukemia); assay: NCI one-dose SRB assay; assay type: cell-based, human; conditions: 10 μM, 48 h
[26] = tested on: K-562 (Leukemia); assay: NCI one-dose SRB assay; conditions: 10 μM, 48 h
Procedure: as §1, §2

[27] = tested on: pseudo-normal cell lines (HEK293, HaCaT); assay: MTT assay, summary over pseudo-normal cell lines; conditions: Homo sapiens, 72 h, read-out: IC50 towards pseudo-normal cell lines
[28] = HCT-116, 72 h of incubation, M ± SD
[29] = MCF-7, 72 h of incubation, M ± SD
[30] = HL-60, 72 h of incubation, M ± SD
[31] = Homo sapiens, HCT-116, 72 h, HCT-116, 72 h of incubation, M ± SD
[32] = Homo sapiens, MCF7, 72 h, MCF-7, 72 h of incubation, M ± SD
[33] = Homo sapiens, KB 3-1, 72 h, KB3-1, 72 h of incubation, M ± SD

COc1cccc2c1C(=O)c1c(O)c3c(c(O)c1C2=O)C[C@@](O)(C(=O)CO)C[C@@H]3O[C@H]1C[C@H](N)[C@H](O)[C@H](C)O1 [Doxorubicin, reference compound]
IC50 [1]: 2 ± 0.35 µM
IC50 [2]: 3.2 ± 0.1 µM
IC50 [3]: 1.74 ± 1.1 µM
IC50 [4]: 1.29 ± 0.87 µM
IC50 ([5]; Homo sapiens, HCT-116, 72 h): 0.9 ± 0.09 µM
IC50 ([6]; Homo sapiens, MCF7, 72 h): 1.04 ± 0.8 µM
IC50 [7]: 3.18 ± 0.25 µM
IC50 ([8]; Homo sapiens, HL-60, 72 h): 0.38 ± 0.5 µM
IC50 [9]: > 10 µM
IC50 [10]: 1.19 ± 1.3 µM
ability of single cell to grow into a colony (compared with control) [11]: 3%
IC50 [12]: 1.17 ± 0.12 µM
IC50 ([13]; Homo sapiens, KB 3-1, 72 h): 4 ± 1.3 µM
morphological changes ([14]; KB3-1, 1 µM): induced cell membrane damage and membrane blebbing to a greater extent

O=C(c1cc(Cc2n[nH]c(=O)c3ccccc23)ccc1F)N1CCn2nc(C(F)(F)F)nc2C1 [Fluzoparib, reference compound]
IC50 [15]: 47 µM
reduction of cell viability ([15]; MCF-7, 5, 10 and 15 µM, compared to non-treated cells): 10–12%

CS(=O)(=O)O.Cc1nc(Nc2ccccn2)sc1C(=O)/C=C/c1ccccc1F [Compound 7, (E)-3-(2-Fluorophenyl)-1-[4-methyl-2-(pyridin-1-ium-2-ylamino)thiazol-5-yl]-2-propen-1-one Methanesulfonate]
IC50 toward tumor cells (depending on tumor cell line) ([16]; summary over tumor cell lines, MTT): acted more weakly compared with 3 and 4
IC50 [5, 28]: 7.27 ± 0.27 µM
IC50 [6, 29]: 4.3 ± 0.98 µM
IC50 [8, 30]: > 10 µM
cells with depolarized mitochondria (decreased ΔΨm) [17]: 24.7 ± 0.4%
IC50 ([13]; KB3-1, 72 h of incubation, M ± SD): 3.96 ± 1.23 µM
apoptotic cells (sum of early and late apoptotic cells) [18]: 31.0 ± 1.9%

CC(=O)c1sc(Nc2ccccn2)nc1C [Compound 2, 1-[4-Methyl-2-(2-pyridylamino)thiazol-5-yl]ethanone]
IC50 [16]: > 50 µM
IC50 [1]: > 50 µM
IC50 [2]: > 50 µM
IC50 [3]: > 50 µM
IC50 [5, 31]: > 50 µM
IC50 [6, 32]: > 50 µM
IC50 [9]: > 50 µM
IC50 [10]: > 50 µM
IC50 [12]: > 50 µM
IC50 [13, 33]: 38 ± 1.9 µM

N.N.[Cl][Pt][Cl] [cisplatin, reference compound]
morphological changes ([14]; KB3-1, 5 µM): significantly less DNA damage

Cc1nc(Nc2ccccn2)sc1C1=NNC(c2ccccc2F)C1 (centres unmarked) [Compound 5, {5-[5-(2-Fluorophenyl)-4,5-dihydro-1H-pyrazol-3-yl]-4-methylthiazol-2-yl}-(pyridin-2-yl)-amine]
Growth % [19]: −18.90%
IC50 [1]: 33.1 ± 1.32 µM
Range of Growth, % ([20]; 48 h, 60 cell lines): −18.90–118.83%
Positive Cytostatic Effect ([20]; number of cell lines with percent growth from 0 to 50 / total number of cell lines): 25/60
Positive Cytotoxic Effect ([20]; number of cell lines with percent growth of <0 / total number of cell lines): 3/60
IC50 [2]: > 50 µM
IC50 [3]: > 50 µM
Growth % [21]: −17.91%
IC50 [4]: 45.4 ± 2.26 µM
IC50 [5, 31]: > 50 µM
IC50 [6, 32]: > 50 µM
IC50 [7]: 34.2 ± 1.7 µM
Growth % [22]: 4.96%
Growth % [23]: −13.74%
IC50 [9]: > 50 µM
IC50 [10]: 34.5 ± 1.02 µM
Growth % [24]: 12.44%
Growth % [25]: 19.12%
IC50 [12]: > 50 µM
IC50 [13, 33]: 13.1 ± 0.52 µM
Growth % [26]: 15.13%

Cc1nc(Nc2ccccn2)sc1C(=O)/C=C/c1ccccc1F [Compound 3, (E)-3-(2-Fluorophenyl)-1-[4-methyl-2-(2-pyridylamino)-thiazol-5-yl]-2-propen-1-one]
IC50 [16]: 0.57 to 7.8 µM
IC50 [1]: 4.56 ± 0.22 µM
IC50 [2]: > 50 µM
IC50 [3]: > 50 µM
IC50 [27]: > 50 µM
IC50 [4]: > 50 µM
IC50 [5, 28]: 2.9 ± 1.03 µM
IC50 [6, 29]: 1.86 ± 0.9 µM
IC50 [7]: 7.18 ± 0.21 µM
IC50 ([15]; MCF-7, compound alone (no preincubation), 72 h MTT, read-out: IC50): 3.9 µM
IC50 [8, 30]: 0.57 ± 0.35 µM
IC50 [9]: > 50 µM
IC50 [10]: 2.81 ± 0.16 µM
IC50 [12]: 5.2 ± 0.1 µM
IC50 [13, 33]: 7.42 ± 0.22 µM
morphological changes ([14]; KB3-1, 5 µM): significantly less DNA damage
